Results published in ChEMBL document CHEMBL4325834, “De Novo Molecular Design of a Novel Octapeptide That Inhibits In Vivo Melanogenesis and Has Great Transdermal Ability” (J Med Chem, 2018).
Calls of active or inactive are those of the source. The calls are words filed in the database; no cut-off is given here. Where a SMILES comes first, the peptide text is derived from it.

Assays:
[1] = Antioxidant activity assessed as DPPH free radical scavenging activity at 80 uM after 30 mins relative to control; assay type: functional
[2] = Antioxidant activity assessed as ABTS radical scavenging activity at 80 uM after 10 mins relative to control; assay type: functional
[3] = Reducing power of the compound assessed as reducing Fe3+ power at 80 uM using K3Fe(CN)6 in pH 6.6 phosphate buffer relative to control
Tyrosinase = target: T1, Tyrosinase (Agaricus bisporus, UniProt O42713); assay: Inhibition of mushroom tyrosinase using L-dopa as substrate assessed as reduction in dopachrome production after 20 mins by spectrophotometry
T1 sequence (O42713 whole entry): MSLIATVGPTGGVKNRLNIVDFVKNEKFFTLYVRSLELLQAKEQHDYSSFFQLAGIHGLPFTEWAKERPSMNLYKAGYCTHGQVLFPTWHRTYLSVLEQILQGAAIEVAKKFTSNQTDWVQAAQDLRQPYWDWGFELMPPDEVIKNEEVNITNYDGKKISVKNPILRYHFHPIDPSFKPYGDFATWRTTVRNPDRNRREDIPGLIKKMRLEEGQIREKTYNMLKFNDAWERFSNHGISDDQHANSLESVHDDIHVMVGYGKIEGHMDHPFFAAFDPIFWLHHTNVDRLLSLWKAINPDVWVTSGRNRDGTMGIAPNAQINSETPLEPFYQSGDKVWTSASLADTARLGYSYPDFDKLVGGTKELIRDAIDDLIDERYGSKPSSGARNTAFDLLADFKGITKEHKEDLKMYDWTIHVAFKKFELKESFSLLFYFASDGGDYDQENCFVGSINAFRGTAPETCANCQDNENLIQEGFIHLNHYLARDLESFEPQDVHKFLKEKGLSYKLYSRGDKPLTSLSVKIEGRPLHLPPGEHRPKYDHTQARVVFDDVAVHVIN

[4] = Hemolytic activity against human erythrocytes assessed as amount of hemoglobin released from lysed cells up to 150 uM relative to control; assay type: ADME, cell-based, Erythrocyte; settings: read-out: Activity
B16 [5] = assay: Cytotoxicity against mouse B16 cells up to 150 uM by MTT assay relative to control; assay type: cell-based
HaCaT = assay: Cytotoxicity against human HaCaT cells up to 150 uM by MTT assay relative to control; assay type: cell-based
[6] = target: T2, Tyrosinase (Mus musculus) (UniProt P11344); assay: Inhibition of TYR activity in mouse B16 cells assessed as increase in whitening at 20 uM preincubated for 72 hrs followed L-dopa substrate addition and measured after 4 hrs by fluorescence microscopy; assay type: cell-based
T2 sequence (whole entry): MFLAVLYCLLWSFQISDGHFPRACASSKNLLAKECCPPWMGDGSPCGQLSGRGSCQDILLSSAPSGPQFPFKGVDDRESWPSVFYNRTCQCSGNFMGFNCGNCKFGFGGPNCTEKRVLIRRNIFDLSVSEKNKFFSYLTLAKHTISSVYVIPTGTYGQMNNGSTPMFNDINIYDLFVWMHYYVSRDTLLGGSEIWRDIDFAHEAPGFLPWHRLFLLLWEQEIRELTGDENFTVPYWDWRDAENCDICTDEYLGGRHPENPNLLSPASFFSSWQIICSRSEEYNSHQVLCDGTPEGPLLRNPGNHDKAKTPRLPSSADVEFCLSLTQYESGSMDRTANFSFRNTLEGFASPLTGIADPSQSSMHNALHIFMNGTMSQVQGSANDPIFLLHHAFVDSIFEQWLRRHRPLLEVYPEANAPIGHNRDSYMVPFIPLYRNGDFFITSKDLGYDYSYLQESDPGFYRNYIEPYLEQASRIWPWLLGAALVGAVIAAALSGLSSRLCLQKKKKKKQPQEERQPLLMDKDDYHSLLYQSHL

[7] = target: T2, Tyrosinase (Mus musculus); assay: Inhibition of TYR activity in mouse B16 cells assessed as effect on pallet after exfoliation at 20 uM preincubated for 72 hrs followed L-dopa substrate addition and measured after 4 hrs by fluorescence microscopy; assay type: cell-based
[8] = target: T2, Tyrosinase (Mus musculus); assay: Inhibition of TYR activity in mouse B16 cells assessed as melanin levels post exfoliation at 20 uM after 72 hrs by spectrophotometric analysis relative to control; assay type: cell-based; parameters: scale not given: the % may be the effect or the level left
[9] = target: T2, Tyrosinase (Mus musculus); assay: Inhibition of TYR activity in mouse B16 cells 20 uM using L-dopa as substrate after 72 hrs relative to control; assay type: cell-based
B16 [10] = assay: Downregulation of TYR protein expression in mouse B16 cells after 72 hrs by Western blot analysis; assay type: functional, cell-based
B16 [11] = assay: Downregulation of MITF protein expression in mouse B16 cells after 72 hrs by Western blot analysis; assay type: functional, cell-based

| Compound | IC50 (Tyrosinase) [µM] | inhibition [6] | Activity [7] | Activity [8] [%] | inhibition [9] [%] | Activity [1] [%] | Activity [2] [%] | Activity [3] | hemolysis [4] [%] | Activity (B16 [5]) [%] | Activity (HaCaT) [%] | inhibition (B16 [10]) | inhibition (B16 [11]) |
| --- | --- | --- | --- | --- | --- | --- | --- | --- | --- | --- | --- | --- | --- |
| CC[C@H](C)[C@H](NC(=O)[C@H](CS)NC(=O)[C@H](C)NC(=O)[C@@H](NC(=O)[C@H](CCCNC(=N)N)NC(=O)[C@H](C)NC(=O)[C@@H](NC(=O)[C@H](CC(N)=O)NC(=O)[C@@H](NC(=O)[C@H](CCSC)NC(=O)[C@H](Cc1c[nH]c2ccccc12)NC(=O)[C@H](Cc1cnc[nH]1)NC(=O)[C@@H](NC(=O)[C@@H](N)CS)C(C)C)[C@@H](C)O)[C@@H](C)O)[C@@H](C)O)C(=O)N[C@@H](C)C(=O)N1CCC[C@H]1C(=O)O (H-CVHWMTNTARTACIAP-OH) | 176 | – | – | – | – | 21 | 82 | 0.34 | – | – | – | – | – |
| CC[C@H](C)[C@H](NC(=O)[C@H](CS)NC(=O)[C@@H](NC(=O)[C@@H](NC(=O)[C@H](CCCNC(=N)N)NC(=O)[C@H](C)NC(=O)[C@@H](NC(=O)[C@H](CC(N)=O)NC(=O)[C@@H](NC(=O)[C@H](CCCNC(=N)N)NC(=O)[C@H](Cc1ccccc1)NC(=O)[C@H](CCCNC(=N)N)NC(=O)[C@@H](NC(=O)[C@@H](N)CS)C(C)C)[C@@H](C)O)[C@@H](C)O)[C@@H](C)O)C(C)C)C(=O)N[C@@H](C)C(=O)N1CCC[C@H]1C(=O)O (H-CVRFRTNTARTVCIAP-OH) | 166 | – | – | – | – | 43 | 36 | 0.18 | 5 | 13 | 15 | – | – |
| CC(C)[C@H](NC(=O)[C@H](CO)NC(=O)[C@H](CCCNC(=N)N)NC(=O)[C@H](CS)NC(=O)[C@H](CO)NC(=O)[C@@H](NC(=O)[C@H](CCCNC(=N)N)NC(=O)[C@H](Cc1ccccc1)NC(=O)[C@@H](N)Cc1ccccc1)[C@@H](C)O)C(=O)N[C@@H](CS)C(=O)O (H-FFRTSCRSVC-OH) | 127 | – | – | – | – | 90 | 58 | 0.28 | 7 | 9 | 13 | – | – |
| C[C@@H](O)[C@H](NC(=O)[C@H](CO)NC(=O)[C@H](Cc1ccccc1)NC(=O)[C@@H](N)Cc1ccccc1)C(=O)N[C@@H](CO)C(=O)N[C@@H](CS)C(=O)N[C@@H](CCCNC(=N)N)C(=O)N[C@@H](CO)C(=O)NCC(=O)N[C@@H](CS)C(=O)O (H-FFSTSCRSGC-OH) | 187 | – | – | – | – | 45 | 80 | 0.21 | – | – | – | – | – |
| CC[C@H](C)[C@H](NC(=O)[C@H](C)NC(=O)[C@@H]1CCCN1C(=O)[C@@H](NC(=O)[C@@H](N)Cc1ccccc1)C(C)C)C(=O)N[C@@H](CC(C)C)C(=O)N[C@@H](CS)C(=O)N[C@@H](CO)C(=O)N[C@H](C(=O)N[C@@H](CC(C)C)C(=O)N[C@@H](CCCCN)C(=O)N[C@H](C(=O)N[C@@H](CS)C(=O)O)[C@@H](C)O)[C@@H](C)CC (H-FVPAILCSILKTC-OH) | 147 | – | – | – | – | 74 | 48 | 0.23 | 4 | 12 | 11 | – | – |
| CC(C)[C@H](NC(=O)[C@H](CCCNC(=N)N)NC(=O)[C@H](Cc1ccccc1)NC(=O)[C@H](CS)NC(=O)[C@H](CCCNC(=N)N)NC(=O)[C@H](CO)NC(=O)[C@@H](N)[C@@H](C)O)C(=O)N[C@@H](CS)C(=O)O (H-TSRCFRVC-OH) | 106 | – | – | – | – | 99 | 50 | 0.24 | 1 | 11 | 9 | – | – |
| CC(C)[C@H](N)C(=O)N[C@H](C(=O)N[C@@H](CCCCN)C(=O)N[C@@H](CS)C(=O)N[C@@H](CO)C(=O)N[C@@H](Cc1ccccc1)C(=O)N[C@@H](CCCNC(=N)N)C(=O)N1CCC[C@H]1C(=O)NCC(=O)N[C@@H](CO)C(=O)N1CCC[C@H]1C(=O)N[C@@H](C)C(=O)N1CCC[C@H]1C(=O)N[C@@H](CCCNC(=N)N)C(=O)N[C@@H](CS)C(=O)N[C@@H](CCCCN)C(=O)O)C(C)C (H-VVKCSFRPGSPAPRCK-OH) | 199 | – | – | – | – | 56 | 25 | 0.18 | 5 | 13 | 10 | – | – |
| OC[C@H]1O[C@@H](Oc2ccc(O)cc2)[C@H](O)[C@@H](O)[C@@H]1O [ARBUTIN] | – | Active | Active | 76.3 | 10.4 | 22 | 53 | 0.12 | 27 | 29 | 31 | inactive | inactive |

The next lines start with results.

| IC50 (Tyrosinase) [µM] | inhibition [6] | Activity [7] | Activity [8] [%] | inhibition [9] [%] | Compound | Activity [1] [%] | Activity [2] [%] | Activity [3] | hemolysis [4] [%] | Activity (B16 [5]) [%] | Activity (HaCaT) [%] | inhibition (B16 [10]) | inhibition (B16 [11]) |
| --- | --- | --- | --- | --- | --- | --- | --- | --- | --- | --- | --- | --- | --- |
| 90 | – | – | – | – | CC(C)[C@H](NC(=O)[C@H](CCCNC(=N)N)NC(=O)[C@H](CS)NC(=O)[C@H](CO)NC(=O)[C@H](CCCNC(=N)N)NC(=O)[C@H](Cc1ccccc1)NC(=O)[C@@H](N)Cc1ccccc1)C(=O)N[C@@H](CS)C(=O)O (H-FFRSCRVC-OH) | 95 | 66 | 0.19 | 2 | 5 | 5 | – | – |
| 78 | – | – | – | – | C[C@H](NC(=O)[C@H](CO)NC(=O)[C@H](CS)NC(=O)[C@H](CO)NC(=O)[C@@H](NC(=O)[C@H](CCCNC(=N)N)NC(=O)[C@@H](N)Cc1ccccc1)[C@@H](C)O)C(=O)N[C@@H](CS)C(=O)O (H-FRTSCSAC-OH) | 73 | 62 | 0.23 | 2 | 8 | 7 | – | – |
| 128 | – | – | – | – | CC[C@H](C)[C@H](NC(=O)[C@H](CS)NC(=O)[C@H](CCCNC(=N)N)NC(=O)[C@H](CO)NC(=O)[C@@H](N)[C@@H](C)O)C(=O)N[C@@H](Cc1ccccc1)C(=O)N[C@@H](Cc1ccc(O)cc1)C(=O)N[C@@H](CCCNC(=N)N)C(=O)N[C@@H](CCCNC(=N)N)C(=O)N[C@@H](CS)C(=O)N[C@H](C(=O)N[C@@H](CS)C(=O)N[C@@H](CO)C(=O)O)C(C)C (H-TSRCIFYRRCVCS-OH) | 60 | 61 | 0.24 | 21 | 27 | 29 | – | – |
| 153 | – | – | – | – | CC[C@H](C)[C@H](NC(=O)[C@H](CS)NC(=O)[C@H](CCCNC(=N)N)NC(=O)[C@H](CO)NC(=O)[C@@H](N)[C@@H](C)O)C(=O)N[C@@H](Cc1ccccc1)C(=O)N[C@@H](Cc1ccc(O)cc1)C(=O)N[C@@H](CCCNC(=N)N)C(=O)N[C@@H](CCCNC(=N)N)C(=O)N[C@@H](CCCCN)C(=O)N[C@@H](CCCCN)C(=O)N[C@@H](CS)C(=O)N[C@@H](CO)C(=O)O (H-TSRCIFYRRKKCS-OH) | 55 | 85 | 0.21 | – | – | – | – | – |
| 220 | – | – | – | – | H-TRAFRCVS-OH | 80 | 56 | 0.25 | 1 | 10 | 11 | – | – |
